These are literature values, as cited in US9045248B2 (priority 2007, dated 2015).

The target in this data set is influenza virus RNP (Influenza A virus, UniProt P03428). Conditions: cited from earlier work.
Chain of influenza virus RNP (P03428 whole entry, looked up): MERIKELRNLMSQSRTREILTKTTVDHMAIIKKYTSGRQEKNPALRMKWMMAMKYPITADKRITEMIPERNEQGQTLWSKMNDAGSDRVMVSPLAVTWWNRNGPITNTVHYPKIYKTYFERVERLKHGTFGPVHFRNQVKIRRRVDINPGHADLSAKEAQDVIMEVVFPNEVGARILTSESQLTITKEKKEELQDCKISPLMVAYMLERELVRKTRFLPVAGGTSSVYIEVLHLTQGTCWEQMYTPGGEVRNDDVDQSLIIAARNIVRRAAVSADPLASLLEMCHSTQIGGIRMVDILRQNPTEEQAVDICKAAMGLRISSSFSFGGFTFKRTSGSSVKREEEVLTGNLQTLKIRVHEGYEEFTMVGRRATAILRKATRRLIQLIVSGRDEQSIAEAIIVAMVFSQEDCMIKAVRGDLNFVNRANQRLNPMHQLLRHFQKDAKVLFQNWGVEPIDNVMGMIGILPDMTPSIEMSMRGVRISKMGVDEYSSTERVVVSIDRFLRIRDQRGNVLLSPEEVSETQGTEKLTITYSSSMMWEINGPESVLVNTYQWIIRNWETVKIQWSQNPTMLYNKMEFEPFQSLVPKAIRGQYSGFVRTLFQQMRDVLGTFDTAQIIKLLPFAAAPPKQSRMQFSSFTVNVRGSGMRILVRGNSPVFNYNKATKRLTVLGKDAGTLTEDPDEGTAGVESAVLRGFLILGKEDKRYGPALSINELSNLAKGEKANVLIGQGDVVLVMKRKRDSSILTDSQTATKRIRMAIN

As to `Nc1nc2c(ncn2[C@@H]2O[C@H](COP(=O)(O)OP(=O)(O)OP(=O)(O)O)[C@@H](O)[C@H]2O)c(=O)[nH]1` [GTP], the IC50 is 550 µM.
For the compound `C[n+]1cn([C@@H]2O[C@H](COP(=O)(O)OP(=O)(O)OP(=O)(O)O)[C@@H](O)[C@H]2O)c2nc(N)[nH]c(=O)c21` [m^7GTP, 7-methyl-guanosine triphosphate], the half-maximal inhibitory concentration (IC50) is 113 µM.

What is called IC50 is the concentration that inhibits the measured activity by half.
